Results from ChEMBL document CHEMBL1201862, “PubChem BioAssay data set” (2004).
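These data come from cells grown in 96-well plates and exposed to compound for 48 hours at five concentrations. GI50 marks 50% less growth.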 Active and inactive are the calls of the source. No stated cut-off is given here; in the data, active = GI50 up to about 1.1 µM and inactive = higher.

How the values were obtained:
Assay in all cases: NCI tumour cell line growth inhibition, 48 h
LXFL 529 = system: LXFL 529
RXF 631 = system: RXF 631
XF498 = system: XF498
SNB-78 = system: SNB-78
KM-20L2 = system: KM-20L2
DLD-1 = system: DLD-1
HOP-18 = system: HOP-18
DMS-273 = system: DMS-273

O=c1/c(=C/c2ccccc2[N+](=O)[O-])sc2nc3ccccc3n12
GI50 (LXFL 529): 33.4 µM (inactive) | GI50 (RXF 631): 17.5 µM (inactive) | GI50 (XF498): 16 µM (inactive) | GI50 (SNB-78): 23.1 µM (inactive) | GI50 (KM-20L2): > 100 µM (inactive) | GI50 (DLD-1): 27.7 µM (inactive) | GI50 (HOP-18): 44.6 µM (inactive) | GI50 (DMS-273): 20 µM (inactive)

CC(=O)OCC1OC(n2c(=O)n(-c3ccccc3)c(=O)c3cc(Br)cc(Br)c32)C(OC(C)=O)C(OC(C)=O)C1OC(C)=O (stereo not drawn)
GI50 (LXFL 529): > 100 µM (inactive) | GI50 (RXF 631): > 100 µM (inactive) | GI50 (XF498): > 100 µM (inactive) | GI50 (SNB-78): > 100 µM (inactive) | GI50 (KM-20L2): 8.95 µM (inactive) | GI50 (DLD-1): > 100 µM (inactive) | GI50 (HOP-18): > 100 µM (inactive) | GI50 (DMS-273): > 100 µM (inactive)

Cc1ccccc1C1OC(=O)c2ccc3ccccc3c21 (stereo not drawn)
GI50 (LXFL 529): 3.38 µM (inactive) | GI50 (RXF 631): 0.607 µM (active) | GI50 (XF498): 2.31 µM (inactive) | GI50 (SNB-78): 6.5 µM (inactive) | GI50 (KM-20L2): 4.16 µM (inactive) | GI50 (DLD-1): 3.37 µM (inactive) | GI50 (HOP-18): 7.64 µM (inactive) | GI50 (DMS-273): 3.5 µM (inactive)

CCOC(=O)N1C2C=C(C)C(C3C(C)C(=O)N31)N(C(=O)c1ccccc1)O2 (stereo not drawn)
GI50 (LXFL 529): > 100 µM (inactive) | GI50 (RXF 631): > 100 µM (inactive) | GI50 (XF498): > 100 µM (inactive) | GI50 (SNB-78): > 100 µM (inactive) | GI50 (DLD-1): > 100 µM (inactive) | GI50 (HOP-18): > 100 µM (inactive) | GI50 (DMS-273): > 100 µM (inactive)

NC(CNc1ccc(O)cc1)C(=O)O (stereo not drawn)
GI50 (LXFL 529): > 100 µM (inactive) | GI50 (RXF 631): 92.3 µM (inactive) | GI50 (XF498): 13.5 µM (inactive) | GI50 (SNB-78): > 100 µM (inactive) | GI50 (KM-20L2): 63 µM (inactive) | GI50 (DLD-1): > 100 µM (inactive) | GI50 (HOP-18): > 100 µM (inactive) | GI50 (DMS-273): > 100 µM (inactive)

COC(=O)Cc1nc2ccccc2o1
GI50 (LXFL 529): 49.3 µM (inactive) | GI50 (RXF 631): > 100 µM (inactive) | GI50 (XF498): 59 µM (inactive) | GI50 (SNB-78): > 100 µM (inactive) | GI50 (KM-20L2): 20.5 µM (inactive) | GI50 (DLD-1): 45.1 µM (inactive) | GI50 (HOP-18): > 100 µM (inactive) | GI50 (DMS-273): 36.4 µM (inactive)

O=S1OC(c2ccccc2)(c2ccccc2)C(c2ccccc2)(c2ccccc2)O1
GI50 (LXFL 529): 7.45 µM (inactive) | GI50 (RXF 631): > 100 µM (inactive) | GI50 (XF498): 56.2 µM (inactive) | GI50 (SNB-78): > 100 µM (inactive) | GI50 (KM-20L2): 18 µM (inactive) | GI50 (DLD-1): > 73.8 µM (inactive) | GI50 (HOP-18): > 100 µM (inactive) | GI50 (DMS-273): > 100 µM (inactive)

Brc1ccc2c(C3CN[C@@H](c4c[nH]c5cc(Br)ccc45)CN3)c[nH]c2c1 (stereo partly drawn)
GI50 (LXFL 529): 2.13 µM (inactive) | GI50 (RXF 631): 2.67 µM (inactive) | GI50 (XF498): 6.84 µM (inactive) | GI50 (SNB-78): 10.4 µM (inactive) | GI50 (KM-20L2): 1.98 µM (inactive) | GI50 (DLD-1): 3.03 µM (inactive) | GI50 (HOP-18): 11.9 µM (inactive) | GI50 (DMS-273): 2.26 µM (inactive)
